Laboratory results reported in patent US11279733B2, “Peptide antibiotics” (priority 2017, dated 2022).
In brackets after ≈: the same amount, converted by molar mass. Positions of bridges follow the written chain, without caps; N, C: chain ends. Non-standard residues stand in square brackets, D forms with d. Residues, ends and D or L forms follow the SMILES beside them. *: point of attachment. Decanoyl(3R-OH) = CCCCCCC[C@@H](O)CC(=O)*; dBip = N[C@H](Cc1ccc(-c2ccccc2)cc1)C(=O)O; 2Nal = N[C@@H](Cc1ccc2ccccc2c1)C(=O)O; dIgl = N[C@@H](C(=O)O)C1Cc2ccccc2C1; Igl = N[C@H](C(=O)O)C1Cc2ccccc2C1; Tle = CC(C)(C)[C@H](N)C(=O)O; dDab = NCC[C@@H](N)C(=O)O; Octanoyl = CCCCCCCC(=O)*; dDap = NC[C@@H](N)C(=O)O; Dab = NCC[C@H](N)C(=O)O

How the values were obtained:
[1] = system: S. aureus ATCC 25923, MSSA; conditions: ATCC 25923
Summary of the method: (§1)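 Mid-log cultures grown in Mueller Hinton broth at 37° C were tested by 2-fold broth microdilution at 5×10^5 CFU/mL final. Compounds were dissolved in water and tested over a final range of 32 to 0.015 μg/mL.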

[2] = system: A. baumannii ATCC 19606; conditions: ATCC 19606
Summary of the method: as §1

[3] = system: A. baumannii GN_093 PmxR; conditions: GN 093 PmxR
Summary of the method: as §1

[4] = system: P. aeruginosa ATCC 27853; conditions: ATCC 27853
Summary of the method: as §1

[5] = system: P. aeruginosa GN_043, PmxR; conditions: polymyxin-resistant
Summary of the method: as §1

[6] = system: P. aeruginosa GN_105, PmxR; conditions: GN 105, PmxR
Summary of the method: as §1

[7] = system: K. pneumoniae ATCC 700603, MDR; conditions: ATCC 700603
Summary of the method: as §1

[8] = system: K. pneumoniae GN_106, PmxR; conditions: GN 106, PmxR
Summary of the method: as §1

[9] = system: K. pneumoniae ATCC BAA-2146, NDM-1 pos; conditions: ATCC BAA-2146
Summary of the method: as §1

[10] = system: K. pneumoniae GN_102 PmxR; conditions: GN 102 PmxR
Summary of the method: as §1

[11] = system: K. pneumoniae ATCC 13883; conditions: ATCC 13883
Summary of the method: as §1

[12] = system: E. coli ATCC 25922; conditions: ATCC 25922
Summary of the method: as §1

[13] = in vitro; conditions: for CC50 at 24 h: human
Summary of the method: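 Fluorescence read-out (excitation 560, emission 590) after a 2 h, 37 °C incubation with 5 μM resazurin, following 24 h compound treatment of cells plated at 4000 per well. CC50 values come from fitting dose–response curves of growth inhibition.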

Structure (SMILES) | MIC S. aureus ATCC 25923, MSSA [1] [µg/mL] | MIC A. baumannii ATCC 19606 [2] [µg/mL] | MIC A. baumannii GN_093 PmxR [3] [µg/mL] | MIC P. aeruginosa ATCC 27853 [4] [µg/mL] | MIC P. aeruginosa GN_043, PmxR [5] [µg/mL] | MIC P. aeruginosa GN_105, PmxR [6] [µg/mL] | MIC K. pneumoniae ATCC 700603, MDR [7] [µg/mL] | MIC K. pneumoniae GN_106, PmxR [8] [µg/mL] | MIC K. pneumoniae ATCC BAA-2146, NDM-1 pos [9] [µg/mL] | MIC K. pneumoniae GN_102 PmxR [10] [µg/mL] | MIC K. pneumoniae ATCC 13883 [11] [µg/mL] | MIC E. coli ATCC 25922 [12] [µg/mL] | CC50 at 24 h [13] [µM] | CC50 [13] [µM]
CCCCCCC[C@@H](O)CC(=O)N[C@H](CCN)C(=O)N[C@H]1CCNC(=O)[C@H](Cc2c[nH]c3ccccc23)NC(=O)[C@H](CCN)NC(=O)[C@H](CCN)NC(=O)[C@H](CC(C)C)NC(=O)[C@@H](C2Cc3ccccc3C2)NC(=O)[C@H](CCN)NC1=O [compound 8826, nC10-3(R)OH-D-Dab-cyc[L-Dab-L-Dab-D-indanylgyl-L-Leu-L-Dab-L-Dab-L-Trp]] ({Decanoyl(3R-OH)}-[dDab][Dab][Dab][dIgl]L[Dab][Dab]W; lactam 2-C) | 4 (≈ 3.5 µM) | 8 (≈ 7 µM) | 8 (≈ 7 µM) | 4 (≈ 3.5 µM) | 4 (≈ 3.5 µM) | 4 (≈ 3.5 µM) | 8 (≈ 7 µM) | 8 (≈ 7 µM) | 4 (≈ 3.5 µM) | 8 (≈ 7 µM) | 8 (≈ 7 µM) | 8 (≈ 7 µM) | 38 | 
CCCCCCC[C@@H](O)CC(=O)N[C@H](CCN)C(=O)N[C@H]1CCNC(=O)[C@H](Cc2c[nH]c3ccccc23)NC(=O)[C@H](CCN)NC(=O)[C@H](CCN)NC(=O)[C@H](Cc2ccc3ccccc3c2)NC(=O)[C@@H](Cc2ccccc2)NC(=O)[C@H](CCN)NC1=O [compound 8832, nC10-3(R)OH-D-Dab-cyc[L-Dab-L-Dab-D-Phe-L-2-NaphthylAla-L-Dab-L-Dab-L-Trp]] ({Decanoyl(3R-OH)}-[dDab][Dab][Dab][dF][2Nal][Dab][Dab]W; lactam 2-C) | 4 (≈ 3.33 µM) | 8 (≈ 6.66 µM) | 16 (≈ 13.3 µM) | 4 (≈ 3.33 µM) | 4 (≈ 3.33 µM) | 8 (≈ 6.66 µM) | 8 (≈ 6.66 µM) | 8 (≈ 6.66 µM) | 8 (≈ 6.66 µM) | 16 (≈ 13.3 µM) | 16 (≈ 13.3 µM) | 8 (≈ 6.66 µM) | 26 | 
CCCCCCC[C@@H](O)CC(=O)N[C@H](CCCNC(=N)N)C(=O)N[C@H]1CCNC(=O)[C@H](Cc2c[nH]c3ccccc23)NC(=O)[C@H](CCN)NC(=O)[C@H](CCN)NC(=O)[C@H](CC(C)C)NC(=O)[C@@H](Cc2ccccc2)NC(=O)[C@H](CCN)NC1=O [compound 8884, nC10-3(R)OH-D-Arg-cyc[L-Dab-L-Dab-D-Phe-L-Leu-L-Dab-L-Dab-L-Trp]] ({Decanoyl(3R-OH)}-[dR][Dab][Dab][dF]L[Dab][Dab]W; lactam 2-C) | 16 (≈ 13.6 µM) | 32 (≈ 27.3 µM) | 32 (≈ 27.3 µM) | 4 (≈ 3.41 µM) | 4 (≈ 3.41 µM) | 16 (≈ 13.6 µM) | 4 (≈ 3.41 µM) | 16 (≈ 13.6 µM) | 8 (≈ 6.82 µM) | 32 (≈ 27.3 µM) | 16 (≈ 13.6 µM) | 4 (≈ 3.41 µM) | 73 | 
CCCCCCCC(=O)N[C@H](CN)C(=O)N[C@H]1CCNC(=O)[C@H](Cc2c[nH]c3ccccc23)NC(=O)[C@H](CCN)NC(=O)[C@H](CCN)NC(=O)[C@H](CC(C)C)NC(=O)[C@@H](Cc2ccccc2)NC(=O)[C@H](CCN)NC1=O [compound 8887, nC7CO-D-Dap-cyc[L-Dab-L-Dab-D-Phe-L-Leu-L-Dab-L-Dab-L-Trp]] (Octanoyl-[dDap][Dab][Dab][dF]L[Dab][Dab]W; lactam 2-C) | 8 (≈ 7.55 µM) | 32 (≈ 30.2 µM) | >32 | 2 (≈ 1.89 µM) | 2 (≈ 1.89 µM) | 8 (≈ 7.55 µM) | 4 (≈ 3.78 µM) | 16 (≈ 15.1 µM) | 8 (≈ 7.55 µM) | 32 (≈ 30.2 µM) | 16 (≈ 15.1 µM) | 8 (≈ 7.55 µM) | 190 | 
CCCCCCC[C@@H](O)CC(=O)N[C@H](CN)C(=O)N[C@H]1CCNC(=O)[C@H](Cc2c[nH]c3ccccc23)NC(=O)[C@H](CCCNC(=N)N)NC(=O)[C@H](CCCCN)NC(=O)[C@H](C2Cc3ccccc3C2)NC(=O)[C@@H](Cc2ccccc2)NC(=O)[C@H](CCN)NC1=O [compound 8888, 3(R)OH-nC9CO-D-Dap-cyc[L-Dab-L-Dab-D-Phe-L-indanylgly-L-Lys-L-Arg-L-Trp]] ({Decanoyl(3R-OH)}-[dDap][Dab][Dab][dF][Igl]KRW; lactam 2-C) | 2 (≈ 1.6 µM) | 4 (≈ 3.21 µM) | 8 (≈ 6.41 µM) | 4 (≈ 3.21 µM) | 4 (≈ 3.21 µM) | 2 (≈ 1.6 µM) | 2 (≈ 1.6 µM) | 4 (≈ 3.21 µM) | 2 (≈ 1.6 µM) | 4 (≈ 3.21 µM) | 4 (≈ 3.21 µM) | 2 (≈ 1.6 µM) |  | 67
CCCCCCC[C@@H](O)CC(=O)N[C@H](CN)C(=O)N[C@H]1CCNC(=O)[C@H](Cc2c[nH]c3ccccc23)NC(=O)[C@H](CCCCN)NC(=O)[C@H](CCCNC(=N)N)NC(=O)[C@H](C2Cc3ccccc3C2)NC(=O)[C@@H](Cc2ccccc2)NC(=O)[C@H](CCN)NC1=O [compound 8890, 3(R)OH-nC9CO-D-Dap-cyc[L-Dab-L-Dab-D-Phe-L-indanylgly-L-Arg-L-Lys-L-Trp]] ({Decanoyl(3R-OH)}-[dDap][Dab][Dab][dF][Igl]RKW; lactam 2-C) | 2 (≈ 1.6 µM) | 8 (≈ 6.41 µM) | 8 (≈ 6.41 µM) | 4 (≈ 3.21 µM) | 4 (≈ 3.21 µM) | 2 (≈ 1.6 µM) | 2 (≈ 1.6 µM) | 4 (≈ 3.21 µM) | 4 (≈ 3.21 µM) | 4 (≈ 3.21 µM) | 2 (≈ 1.6 µM) | 2 (≈ 1.6 µM) | 67 | 
CCCCCCC[C@@H](O)CC(=O)N[C@H](CN)C(=O)N[C@H]1CCNC(=O)[C@H](Cc2c[nH]c3ccccc23)NC(=O)[C@H](CCCNC(=N)N)NC(=O)[C@H](CCCCN)NC(=O)[C@H](C(C)(C)C)NC(=O)[C@@H](Cc2ccc(-c3ccccc3)cc2)NC(=O)[C@H](CCN)NC1=O [compound 8892, 3(R)OH-nC9CO-D-Dap-cyc[L-Dab-L-Dab-D-Bip-L-tert-Leu-L-Lys-L-Arg-L-Trp]] ({Decanoyl(3R-OH)}-[dDap][Dab][Dab][dBip][Tle]KRW; lactam 2-C) | 4 (≈ 3.17 µM) | 8 (≈ 6.33 µM) | 8 (≈ 6.33 µM) | 8 (≈ 6.33 µM) | 4 (≈ 3.17 µM) | 4 (≈ 3.17 µM) | 4 (≈ 3.17 µM) | 8 (≈ 6.33 µM) | 4 (≈ 3.17 µM) | 8 (≈ 6.33 µM) | 8 (≈ 6.33 µM) | 4 (≈ 3.17 µM) | > 300 | 
